# Measurements reported in patent US8592448B2 (OSI Pharmaceuticals, LLC, priority 2008, dated 2013).
# pIC50: −log10 of the molar value. Like-named read-outs stand apart in the source and are kept apart here.
# Experiments:
# c-Met = target: T1, c-Met (Homo sapiens, UniProt P08581); assay: c-Met kinase assay (Invitrogen Z′-LYTE kinase assay platform); assay type: biochemical; settings: Z′-LYTE kinase assay at Invitrogen, ATP concentration of 100 μM
# T1 construct: purchased Invitrogen
# Protocol: (§1) The activities of exemplary compounds of the present invention against Ron and c-Met determined at Invitrogen using the Z′-LYTE™ kinase assay platform are shown in Table 1: A, IC50≦0.1 μM; B, 0.1 μM<IC50≦1 μM; C, 1 μM<IC50≦10 μM; D, IC50>10 μM. The assays were conducted at an ATP concentration of 100 μM. The Example # of Table 1 corresponds to the compound example number as illustrated in the Examples section.
# Ron = target: T2, Ron (Homo sapiens, UniProt Q04912); assay: Ron kinase assay (Invitrogen Z′-LYTE kinase assay platform); assay type: biochemical; settings: Z′-LYTE kinase assay at Invitrogen, ATP concentration of 100 μM
# T2 construct: purchased Invitrogen
# Protocol: as §1
# MKN45 cells = assay: MKN45 cell proliferation assay (CellTiter-Glo); assay type: cell-based; settings: MKN45 cell line, 3 days incubation, at least duplicate experiments, read-out: Prolif. IC50
# How it was run: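 MKN45 cells (5000/well, RPMI + 10% FCS) plated overnight, then exposed to 8-point dilution series, typically 10 μM to 0.6 nM, in 0.1% DMSO for 3 days at 37 °C. CellTiter-Glo luminescence as % of DMSO control; IC50 from four-parameter fit, at least duplicate experiments.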
# phosphorylated c-MET = target: T3, phosphorylated c-MET (Homo sapiens, UniProt P08581); assay: c-MET cell mechanistic assay (phosphorylated c-MET in MKN45 cells); assay type: cell-based; settings: MKN45 cell line, four hours incubation, phosphorylated c-MET levels, at least duplicate experiments; read-out: Met mech IC50
# T3 construct: endogenous in cells; host or cells: MKN45
# How it was run: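 MKN45 cells were treated 4 h at 37 °C with a 6-point dilution series (typically 10 μM to 3 nM; final 0.5% DMSO). Phospho-c-MET (pY1230/1234/1235) in lysates was measured by capture ELISA with HRP read-out at 450 nm. IC50 came from a four-parameter fit of percent of DMSO control.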
# T2 sequence (Q04912 25-1400): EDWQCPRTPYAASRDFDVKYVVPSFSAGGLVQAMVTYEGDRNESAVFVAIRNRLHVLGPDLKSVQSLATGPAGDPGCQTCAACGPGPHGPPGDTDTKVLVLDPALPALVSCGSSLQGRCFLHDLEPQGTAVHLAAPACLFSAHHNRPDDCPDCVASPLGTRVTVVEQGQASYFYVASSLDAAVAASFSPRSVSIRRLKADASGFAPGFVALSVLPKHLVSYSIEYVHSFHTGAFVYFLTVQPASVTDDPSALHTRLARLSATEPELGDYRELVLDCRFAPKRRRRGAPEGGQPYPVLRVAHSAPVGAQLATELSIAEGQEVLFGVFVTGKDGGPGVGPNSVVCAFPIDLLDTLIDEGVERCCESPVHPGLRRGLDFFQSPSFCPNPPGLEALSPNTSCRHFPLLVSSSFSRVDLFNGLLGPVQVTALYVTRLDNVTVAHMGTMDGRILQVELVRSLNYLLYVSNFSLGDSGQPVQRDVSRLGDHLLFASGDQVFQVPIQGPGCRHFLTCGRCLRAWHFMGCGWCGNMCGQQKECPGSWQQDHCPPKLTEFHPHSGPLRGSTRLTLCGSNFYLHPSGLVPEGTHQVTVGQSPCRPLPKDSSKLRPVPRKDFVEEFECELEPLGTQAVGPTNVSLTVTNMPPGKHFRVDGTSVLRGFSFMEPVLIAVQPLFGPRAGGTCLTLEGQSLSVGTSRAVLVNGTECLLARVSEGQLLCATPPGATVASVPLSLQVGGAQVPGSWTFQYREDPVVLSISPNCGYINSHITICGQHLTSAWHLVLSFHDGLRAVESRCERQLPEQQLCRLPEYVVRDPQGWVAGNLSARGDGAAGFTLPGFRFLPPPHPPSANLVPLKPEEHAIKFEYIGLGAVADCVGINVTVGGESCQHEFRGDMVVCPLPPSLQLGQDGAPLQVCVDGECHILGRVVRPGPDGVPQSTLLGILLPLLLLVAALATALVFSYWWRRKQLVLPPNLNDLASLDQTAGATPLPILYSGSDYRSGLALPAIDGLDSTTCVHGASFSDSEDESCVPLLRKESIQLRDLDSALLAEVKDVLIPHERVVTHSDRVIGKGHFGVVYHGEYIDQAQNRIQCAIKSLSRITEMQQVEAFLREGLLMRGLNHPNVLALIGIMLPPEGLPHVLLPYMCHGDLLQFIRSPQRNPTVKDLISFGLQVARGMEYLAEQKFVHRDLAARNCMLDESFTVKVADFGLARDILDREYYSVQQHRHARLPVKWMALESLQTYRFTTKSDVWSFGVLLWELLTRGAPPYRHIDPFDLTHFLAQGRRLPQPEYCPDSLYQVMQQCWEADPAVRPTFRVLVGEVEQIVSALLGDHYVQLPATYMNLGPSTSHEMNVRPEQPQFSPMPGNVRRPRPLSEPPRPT
# T3 sequence (P08581 25-1390): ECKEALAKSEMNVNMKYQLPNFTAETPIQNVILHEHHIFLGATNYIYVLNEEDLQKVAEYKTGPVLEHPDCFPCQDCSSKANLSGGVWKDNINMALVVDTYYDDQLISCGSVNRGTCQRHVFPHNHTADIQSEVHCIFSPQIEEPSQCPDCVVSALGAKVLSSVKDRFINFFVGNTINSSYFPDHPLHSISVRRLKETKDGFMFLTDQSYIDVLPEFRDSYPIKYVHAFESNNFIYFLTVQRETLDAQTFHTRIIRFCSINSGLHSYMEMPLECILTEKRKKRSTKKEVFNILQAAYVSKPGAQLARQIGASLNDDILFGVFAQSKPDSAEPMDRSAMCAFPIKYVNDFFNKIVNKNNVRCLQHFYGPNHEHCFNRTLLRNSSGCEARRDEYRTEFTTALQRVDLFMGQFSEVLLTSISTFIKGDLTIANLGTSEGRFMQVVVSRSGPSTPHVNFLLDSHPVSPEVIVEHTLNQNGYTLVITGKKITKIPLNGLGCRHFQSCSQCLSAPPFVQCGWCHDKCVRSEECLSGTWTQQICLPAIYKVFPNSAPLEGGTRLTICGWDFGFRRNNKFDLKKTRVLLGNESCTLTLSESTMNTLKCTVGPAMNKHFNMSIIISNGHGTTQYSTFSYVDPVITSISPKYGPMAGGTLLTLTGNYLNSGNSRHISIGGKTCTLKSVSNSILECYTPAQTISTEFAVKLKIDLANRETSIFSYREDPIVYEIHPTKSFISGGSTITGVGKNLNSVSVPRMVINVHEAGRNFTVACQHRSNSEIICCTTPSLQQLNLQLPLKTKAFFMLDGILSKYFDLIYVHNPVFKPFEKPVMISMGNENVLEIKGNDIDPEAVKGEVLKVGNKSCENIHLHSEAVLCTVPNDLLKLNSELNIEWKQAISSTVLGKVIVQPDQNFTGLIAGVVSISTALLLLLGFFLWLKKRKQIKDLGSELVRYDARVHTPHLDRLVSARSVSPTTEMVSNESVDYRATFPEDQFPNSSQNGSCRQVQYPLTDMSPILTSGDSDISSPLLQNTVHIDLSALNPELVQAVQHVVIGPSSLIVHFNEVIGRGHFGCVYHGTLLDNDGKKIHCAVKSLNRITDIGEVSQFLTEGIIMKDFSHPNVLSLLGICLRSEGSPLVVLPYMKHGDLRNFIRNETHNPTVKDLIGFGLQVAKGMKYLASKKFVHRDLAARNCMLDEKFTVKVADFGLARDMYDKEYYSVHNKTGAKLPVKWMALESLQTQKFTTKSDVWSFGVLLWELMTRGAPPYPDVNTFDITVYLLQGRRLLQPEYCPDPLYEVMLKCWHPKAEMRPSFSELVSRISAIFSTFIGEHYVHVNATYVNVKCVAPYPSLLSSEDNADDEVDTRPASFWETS
# T1 sequence (P08581 25-1390): as above
SMILES,pIC50 (c-Met),pIC50 (Ron),"pIC50 (MKN45 cells; Homo sapiens, MKN-45, 72 h)",pIC50 (phosphorylated c-MET),pIC50 (MKN45 cells)
"CC(c1c(Cl)cccc1Cl)c1c[nH]c2ncc(-c3cnn(C4CCNCC4)c3)cc12 (centres unmarked) [Example 1, 3-[1-(2,6-Dichlorophenyl)ethyl]-5-(1-piperidin-4-yl-1H-pyrazol-4-yl)-1H-pyrrolo[2,3-b]pyridine]",≥ 7.00,≥ 7.00,6.00 to 7.00,≥ 7.00,
"CC(c1c(Cl)ccc(F)c1Cl)c1c[nH]c2ncc(-c3cnn(C4CCNCC4)c3)cc12 (centres unmarked) [Example 2, 3-[1-(2,6-Dichloro-3-fluorophenyl)ethyl]-5-(1-piperidin-4-yl-1H-pyrazol-4-yl)-1H-pyrrolo[2,3-b]pyridine]",≥ 7.00,≥ 7.00,≥ 7.00,≥ 7.00,
"C[C@H](c1c(Cl)ccc(F)c1Cl)c1c[nH]c2ncc(-c3cnn(CCO)c3)cc12 [Example 70, 2-(4-{3-[(S)-1-(2,6-Dichloro-3-fluorophenyl)ethyl]-1H-pyrrolo[2,3-b]-pyridin-5-yl}pyrazol-1-yl)ethanol]",≥ 7.00,5.00 to 6.00,≥ 7.00,≥ 7.00,
"CC(c1c(Cl)ccc(F)c1Cl)c1c[nH]c2ncc(-c3cnn(C4CCN(C=O)CC4)c3)cc12 (centres unmarked) [Example 71, 4-(4-{3-[1-(2,6-Dichloro-3-fluorophenyl)ethyl]-1H-pyrrolo[2,3-b]pyridin-5-yl}-pyrazol-1-yl)-piperidine-1-carbaldehyde]",≥ 7.00,6.00 to 7.00,,,≥ 7.00
"C[C@H](c1c(Cl)ccc(F)c1Cl)c1c[nH]c2ncc(-c3cnn(C(C)(C)CO)c3)cc12 [Example 85, 2-(4-{3-[(S)-1-(2,6-Dichloro-3-fluorophenyl)ethyl]-1H-pyrrolo[2,3-b]-pyridin-5-yl}-pyrazol-1-yl)-2-methylpropan-1-ol]",,,6.00 to 7.00,≥ 7.00,
"CC(c1c(Cl)ccc(F)c1Cl)c1c[nH]c2ncc(-c3cccnc3)cc12 (centres unmarked) [Example 88, 3-[1-(2,6-Dichloro-3-fluorophenyl)ethyl]-5-pyridin-3-yl-1H-pyrrolo[2,3-b]pyridine]",,,6.00 to 7.00,6.00 to 7.00,
"CC(c1c(Cl)ccc(F)c1Cl)c1c[nH]c2ncc(-c3cnn(C4CCC(=O)CC4)c3)cc12 (centres unmarked) [Example 89, 4-(4-{3-[1-(2,6-Dichloro-3-fluorophenyl)ethyl]-1H-pyrrolo[2,3-b]pyridin-5-yl}-pyrazol-1-yl)cyclohexanone]",,,≥ 7.00,≥ 7.00,
"C[C@H](c1c(Cl)ccc(F)c1Cl)c1c[nH]c2ncc(-c3cnn(C[C@H](O)CO)c3)cc12 [Example 90, (S)-3-(4-{3-[(S)-1-(2,6-Dichloro-3-fluorophenyl)ethyl]-1H-pyrrolo[2,3-b]pyridin-5-yl}-pyrazol-1-yl)-propane-1,2-diol]",,,≥ 7.00,≥ 7.00,
